Assay results published in publication PMC5838106, “Cathelicidin promotes inflammation by enabling binding of self-RNA to cell surface scavenger receptors” (Scientific Reports, 2018).
Where no end group is shown, it is not given here.

Legend:
NHEKs = assay: Cytokine mRNA expression in NHEKs stimulated with cathelicidin peptide and dsRNA (quantitative real-time PCR); format: cell-based, human; details: for capacity to enable U1 RNA to amplify IFN-β1 or IL-6 expression: NHEKs, peptide 2.5 μM 10 minutes, then U1 RNA 2.5 μg/mL 6 hours, n = 3
Method: Figure 1 Inflammatory activity of cathelicidin can be dissociated from antimicrobial function (a) Transcriptomic analysis by RNASeq of primary cultures of normal human epidermal keratinocytes (NHEKs) treated with LL37 (2.5 μM) with or without U1 RNA (2.5 μg/mL) for 24 hours. Shown are gene sets induced > 2 fold over vehicle, and after treatment with LL37, U1 RNA, or the combination of LL37 + U1 RNA. (b) Gene Ontology analysis of gene sets from (a). The number of genes related to each biological process is indicated in parentheses. (c) Amino acid sequence of synthetic cathelicidin peptides used in this study. (d) Antimicrobial assay of cathelicidin peptides against group A streptococcus (GAS). GAS were incubated with various concentrations of each peptide (0–25 μM) for 6 hours, then surviving colonies counted after plating on Todd Hewitt Broth gel. (e) IFN-β1 mRNA abundance and (f) IL-6 mRNA abundance in NHEKs after treatment with cathelicidin peptides (2.5 μM) for 10 minutes, then stimulated with U1 RNA (2.5 μg/mL) for a further 6 hours. (n = 3). (g) IFN-β1 mRNA abundance and (h) IL-6 mRNA abundance in […] (PMA)-treated THP1 cells after treatment with cathelicidin peptides (3 μM) for 10 minutes, then stimulated with U1 RNA (12.5 μg/mL) overnight. (n = 3). Data presented are from one representative experiment of at least two independent experiments. Error bars are SEM of three biological replicates. *P < 0.05, **P < 0.01, ***P < 0.001 by two-way ANOVA with Bonferroni’s post-hoc test. See also Fig. S1. […]
RNA was isolated from NHEKs using Purelink RNA isolation columns (ThermoFisher Scientific) according to the manufacturer’s instructions. RNA was quantified using a Nanodrop spectrophotometer (ThermoFisher Scientific), and up to 500 ng of RNA was reverse-transcribed using the iScript cDNA synthesis kit (Bio-Rad, Irvine, CA). Quantitative real-time PCR reactions were run on a CFX96 real-time detection system (Bio-Rad) using gene-specific primers and TaqMan probes (ThermoFisher Scientific). […]

THP1 cells = assay: Cytokine expression in PMA-treated THP1 cells stimulated with cathelicidin peptide and U1 RNA; format: cell-based, human; details: PMA-treated THP1, peptide 3 μM 10 minutes, then U1 RNA 12.5 μg/mL overnight; n = 3
Method: Figure 1 Inflammatory activity of cathelicidin can be dissociated from antimicrobial function (a) Transcriptomic analysis by RNASeq of primary cultures of normal human epidermal keratinocytes (NHEKs) treated with LL37 (2.5 μM) with or without U1 RNA (2.5 μg/mL) for 24 hours. Shown are gene sets induced > 2 fold over vehicle, and after treatment with LL37, U1 RNA, or the combination of LL37 + U1 RNA. (b) Gene Ontology analysis of gene sets from (a). The number of genes related to each biological process is indicated in parentheses. (c) Amino acid sequence of synthetic cathelicidin peptides used in this study. (d) Antimicrobial assay of cathelicidin peptides against group A streptococcus (GAS). GAS were incubated with various concentrations of each peptide (0–25 μM) for 6 hours, then surviving colonies counted after plating on Todd Hewitt Broth gel. (e) IFN-β1 mRNA abundance and (f) IL-6 mRNA abundance in NHEKs after treatment with cathelicidin peptides (2.5 μM) for 10 minutes, then stimulated with U1 RNA (2.5 μg/mL) for a further 6 hours. (n = 3). (g) IFN-β1 mRNA abundance and (h) IL-6 mRNA abundance in […] (PMA)-treated THP1 cells after treatment with cathelicidin peptides (3 μM) for 10 minutes, then stimulated with U1 RNA (12.5 μg/mL) overnight. (n = 3). Data presented are from one representative experiment of at least two independent experiments. Error bars are SEM of three biological replicates. *P < 0.05, **P < 0.01, ***P < 0.001 by two-way ANOVA with Bonferroni’s post-hoc test. See also Fig. S1.
Primary neonatal human epidermal keratinocytes (NHEKs) was purchased from ThermoFisher Scientific. NHEKs were grown in serum free EpiLife medium supplemented with 0.06 mM CaCl2, EpiLife Defined growth supplements (EDGS) (ThermoFisher Scientific) and antibiotics, and passage 3–5 cells were used for experiment. Cells at 60–80% confluence were starved overnight without EDGS prior to treatment. THP1 was purchased from American Type Culture Collection (ATCC) (Manassas, VA). THP1 was cultured in RPMI-1640 (Sigma) supplemented with 10% Hyclone fetal calf serum (Thermofisher Scientific), and antibiotics, and passage 3–5 cells were used for experiment. Cells at 60–80% confluence were differentiated by Phorbol 12-myristate 13-acetate (PMA, Sigma) for 24 hours and then starved overnight without Hyclone fetal calf serum prior to treatment.
RNA was isolated from NHEKs using Purelink RNA isolation columns (ThermoFisher Scientific) according to the manufacturer’s instructions. RNA was quantified using a Nanodrop spectrophotometer (ThermoFisher Scientific), and up to 500 ng of RNA was reverse-transcribed using the iScript cDNA synthesis kit (Bio-Rad, Irvine, CA). Quantitative real-time PCR reactions were run on a CFX96 real-time detection system (Bio-Rad) using gene-specific primers and TaqMan probes (ThermoFisher Scientific). PCR primers and probes are shown on Table S2.

SR-A6 = target: T1, SR-A6 (Homo sapiens, UniProt Q9UEW3); assay: Proximity ligation assay for SR-A6 and U1 RNA; format: cell-based; details: NHEKs, peptide 2.5 μM 10 minutes, biotinylated U1 RNA 2.5 μg/mL, 4 °C, 1 hour
T1 construct: Proximity ligation assay for SR-A6 and U1; endogenous in cells; host or cells: NHEK (primary neonatal human epidermal keratinocytes)
T1 sequence (Q9UEW3 1-520): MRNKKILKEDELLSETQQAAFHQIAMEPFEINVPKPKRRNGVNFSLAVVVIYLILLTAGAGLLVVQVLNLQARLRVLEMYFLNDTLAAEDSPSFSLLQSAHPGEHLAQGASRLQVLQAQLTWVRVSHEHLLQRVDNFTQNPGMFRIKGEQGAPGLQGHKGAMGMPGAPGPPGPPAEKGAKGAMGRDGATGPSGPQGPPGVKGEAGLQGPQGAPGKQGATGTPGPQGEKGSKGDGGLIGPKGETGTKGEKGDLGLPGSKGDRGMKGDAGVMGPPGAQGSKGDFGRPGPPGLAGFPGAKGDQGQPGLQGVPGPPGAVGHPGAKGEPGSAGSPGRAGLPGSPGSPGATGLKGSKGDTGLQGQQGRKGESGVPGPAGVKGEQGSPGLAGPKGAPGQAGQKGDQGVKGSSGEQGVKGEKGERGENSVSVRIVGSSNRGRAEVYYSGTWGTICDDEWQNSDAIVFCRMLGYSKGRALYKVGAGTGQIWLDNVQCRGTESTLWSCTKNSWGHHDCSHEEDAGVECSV
Method: NHEKs seeded into 8 chamber slides (Thermo Fisher Scientific) were incubated with various combination of U1 RNA, poly(I:C), cathelicidin peptides, and fucoidan for 1 hour at 4 °C allowing binding, but not internalization. Unbound RNA was removed by washing with cold PBS. Cells were fixed with 4% PFA at 4 °C. Blocking buffer (Sigma) was used to prevent nonspecific antibody binding, and cells were incubated with two primary antibodies. […] Fluorescent PLA signals were evaluated using fluorescence microscopy (described above). Signals are counted by Duolink ImageTool software version 1.0.1.2 (Sigma-aldrich). […]
RNA. NHEKs were cultured with various cathelicidin peptides (2.5 µM) for 10 minutes, then with biotinylated U1 RNA (2.5 µg/mL) at 4 °C for 1 hour before physical proximity of SR-A6 and U1 RNA was determined using a fluorescence-based PLA that produces a red fluorescent signal. […] PMA-treated THP1 were cultured with various cathelicidin peptides (3 µM) for 10 minutes, then with biotinylated U1 RNA (2.5 µg/mL) at 4 °C for 1 hour before physical proximity of U1 RNA and scavenger receptors was determined using a fluorescence-based PLA, each count is PLA complexes observed in 5 visual fields. f) NHEKs cultured at 37 °C that were stained immediately after or after 5 […]

close association between U1 RNA and SR-A6 (PLA, <40 nm) (SR-A6) | Substance | capacity to enable U1 RNA to amplify IFN-β1 or IL-6 expression (NHEKs) | capacity to enable U1 RNA to amplify IFN-β1 or IL-6 expression (THP1 cells) | capacity to induce IL-6 and IFN-β mRNA (NHEKs; peptide with U1 RNA, keratinocytes)
enabled close association | LL37 | large responses | large responses | 
enabled close association | LLGDFFRKSKEKIGKEFKRIVQRIKDFLRNLVPR [LL34] | large responses | large responses | ca. 3000 fold
